Experimental data published in US20230272016A1, “PEPTIDES FOR IMMUNOTHERAPY” (Second Genome, Inc., priority 2020, published 2023).

T1: CXCR3 (human, UniProt P49682 1-368)
T1 construct: whole, on cells; The reporter constructs are not described; also called CSCR3
T1 sequence (looked up): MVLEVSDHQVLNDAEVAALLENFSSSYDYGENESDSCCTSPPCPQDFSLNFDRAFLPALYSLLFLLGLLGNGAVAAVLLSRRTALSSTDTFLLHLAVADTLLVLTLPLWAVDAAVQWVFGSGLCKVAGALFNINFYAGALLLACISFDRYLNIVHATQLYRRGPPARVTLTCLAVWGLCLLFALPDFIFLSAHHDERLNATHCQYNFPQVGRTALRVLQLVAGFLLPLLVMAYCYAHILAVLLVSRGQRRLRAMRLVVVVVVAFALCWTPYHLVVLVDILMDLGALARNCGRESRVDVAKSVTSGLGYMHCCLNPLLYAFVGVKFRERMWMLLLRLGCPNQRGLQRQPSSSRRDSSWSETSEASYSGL

T2: CCR9 (human, UniProt P51686 1-369, limits assumed)
T2 sequence (looked up): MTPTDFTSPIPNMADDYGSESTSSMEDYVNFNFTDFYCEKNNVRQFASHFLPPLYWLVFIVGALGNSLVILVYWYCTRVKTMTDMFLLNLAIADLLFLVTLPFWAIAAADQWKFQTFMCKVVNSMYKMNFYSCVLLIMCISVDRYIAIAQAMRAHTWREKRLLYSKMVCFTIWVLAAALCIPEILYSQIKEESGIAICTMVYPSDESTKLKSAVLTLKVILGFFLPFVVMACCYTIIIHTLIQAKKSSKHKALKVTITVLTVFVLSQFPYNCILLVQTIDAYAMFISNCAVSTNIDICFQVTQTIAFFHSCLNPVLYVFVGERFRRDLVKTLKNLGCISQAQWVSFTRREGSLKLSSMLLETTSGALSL

T3: CHRM5 (human, UniProt P08912 1-532)
T3 sequence (looked up): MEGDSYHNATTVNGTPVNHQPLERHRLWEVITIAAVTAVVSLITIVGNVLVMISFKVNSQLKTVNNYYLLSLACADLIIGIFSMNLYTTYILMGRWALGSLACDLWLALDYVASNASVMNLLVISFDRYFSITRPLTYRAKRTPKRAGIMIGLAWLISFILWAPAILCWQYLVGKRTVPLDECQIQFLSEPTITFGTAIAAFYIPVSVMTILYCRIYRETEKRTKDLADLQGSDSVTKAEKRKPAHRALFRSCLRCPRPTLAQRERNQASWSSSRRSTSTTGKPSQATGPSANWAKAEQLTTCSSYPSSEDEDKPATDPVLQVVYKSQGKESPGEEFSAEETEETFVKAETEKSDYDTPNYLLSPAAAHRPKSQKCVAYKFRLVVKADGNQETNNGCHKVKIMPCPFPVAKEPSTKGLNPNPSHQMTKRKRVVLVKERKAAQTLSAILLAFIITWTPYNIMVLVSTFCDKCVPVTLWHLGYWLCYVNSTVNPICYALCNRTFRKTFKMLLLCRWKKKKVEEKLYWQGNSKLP

T4: HCRTR2 (human, UniProt O43614 1-444)
T4 sequence (looked up): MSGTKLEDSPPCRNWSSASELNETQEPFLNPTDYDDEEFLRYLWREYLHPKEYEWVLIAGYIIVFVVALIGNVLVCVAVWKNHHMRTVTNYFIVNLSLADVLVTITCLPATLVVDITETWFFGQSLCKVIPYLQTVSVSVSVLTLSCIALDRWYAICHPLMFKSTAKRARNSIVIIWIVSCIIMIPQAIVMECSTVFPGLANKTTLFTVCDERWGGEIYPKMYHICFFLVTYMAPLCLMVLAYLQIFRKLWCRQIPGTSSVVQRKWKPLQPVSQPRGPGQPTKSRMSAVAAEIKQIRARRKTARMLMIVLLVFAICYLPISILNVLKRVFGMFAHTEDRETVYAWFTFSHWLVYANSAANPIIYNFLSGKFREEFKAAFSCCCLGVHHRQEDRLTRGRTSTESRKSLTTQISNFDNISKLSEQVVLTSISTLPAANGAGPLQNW

T5: MRGPRX2 (human, UniProt Q96LB1 1-330)
T5 sequence (looked up): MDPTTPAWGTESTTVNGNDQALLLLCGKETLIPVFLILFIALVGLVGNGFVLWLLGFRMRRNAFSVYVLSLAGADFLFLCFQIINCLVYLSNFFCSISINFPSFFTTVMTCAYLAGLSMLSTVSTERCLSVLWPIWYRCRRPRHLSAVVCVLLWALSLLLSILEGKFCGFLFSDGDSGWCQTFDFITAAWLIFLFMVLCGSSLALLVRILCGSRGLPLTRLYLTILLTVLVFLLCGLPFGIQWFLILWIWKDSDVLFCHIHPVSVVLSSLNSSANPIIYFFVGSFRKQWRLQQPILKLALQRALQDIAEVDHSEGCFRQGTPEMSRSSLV


Experiments:
[1] = tested on: human T cells; assay: Human T cell activation assay (anti-CD3 plus peptide, cytokine secretion); assay type: cell-based
Method: FIGS. 11 and 12 show 150 peptide variants of the SG-3-0020 1-29 aa N-terminal+middle region, derived from a combinatorial phage display library, were tested for activation potential of human T cells. […] Increase in cytokine secretion was concordant in 3 donors.
For example, PBMCs were obtained from individual human donors.
T-cell activation was also determined as described previously (see above and International Application No. PCT/US2020/012431). […] Separate N-, MID, and C-terminal fragments lose activity. The data support that both N- and middle region are minimally required for binding and activation to T cells.

[2] = molecular target: T1, CXCR3; assay: CXCR3 activity assay with ligand, with SG-3-00802 or SG-3-05021 added
[3] = molecular target: T1, CXCR3; assay: cell-based or functional assay
[4] = molecular target: CXCR4 (human, UniProt P61073 1-352); assay: cell-based or functional assay
[5] = molecular target: T2, CCR9; assay: cell-based or functional assay
[6] = molecular target: T3, CHRM5; assay: cell-based or functional assay
[7] = molecular target: T4, HCRTR2; assay: cell-based or functional assay
[8] = molecular target: T5, MRGPRX2; assay: cell-based or functional assay
[9] = molecular target: SSTR1 (human, UniProt P30872 1-391); assay: cell-based or functional assay
[10] = molecular target: TSHR(L) (human, UniProt P16473-1 21-764, limits assumed); assay: cell-based or functional assay
[11] = Table 11, 150 combinatorial library variants of SEQ ID NO:1
[12] = Table 10, combinatorial library variants of SEQ ID NO:1

TSHR(L), sequence (P16473 21-764 limits assumed): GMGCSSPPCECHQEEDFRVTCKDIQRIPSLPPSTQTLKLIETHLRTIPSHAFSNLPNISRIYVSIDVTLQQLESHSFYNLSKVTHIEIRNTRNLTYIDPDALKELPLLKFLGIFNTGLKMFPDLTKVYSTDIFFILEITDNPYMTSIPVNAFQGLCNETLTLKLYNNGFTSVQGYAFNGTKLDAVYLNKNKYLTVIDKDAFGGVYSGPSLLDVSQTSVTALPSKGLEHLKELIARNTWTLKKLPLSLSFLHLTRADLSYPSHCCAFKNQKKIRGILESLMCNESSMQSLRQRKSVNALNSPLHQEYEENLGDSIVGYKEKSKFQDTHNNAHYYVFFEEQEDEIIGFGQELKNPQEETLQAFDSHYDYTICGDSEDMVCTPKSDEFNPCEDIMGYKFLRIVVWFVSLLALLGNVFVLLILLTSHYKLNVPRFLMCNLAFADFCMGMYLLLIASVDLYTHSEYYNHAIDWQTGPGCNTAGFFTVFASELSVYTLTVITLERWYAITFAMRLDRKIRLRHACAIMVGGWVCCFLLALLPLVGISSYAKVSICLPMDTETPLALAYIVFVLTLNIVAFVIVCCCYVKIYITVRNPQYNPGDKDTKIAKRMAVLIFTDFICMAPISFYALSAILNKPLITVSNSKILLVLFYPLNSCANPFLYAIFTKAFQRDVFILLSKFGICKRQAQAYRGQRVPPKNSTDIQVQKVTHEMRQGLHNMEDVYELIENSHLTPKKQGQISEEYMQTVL
SSTR1, sequence (P30872 whole entry): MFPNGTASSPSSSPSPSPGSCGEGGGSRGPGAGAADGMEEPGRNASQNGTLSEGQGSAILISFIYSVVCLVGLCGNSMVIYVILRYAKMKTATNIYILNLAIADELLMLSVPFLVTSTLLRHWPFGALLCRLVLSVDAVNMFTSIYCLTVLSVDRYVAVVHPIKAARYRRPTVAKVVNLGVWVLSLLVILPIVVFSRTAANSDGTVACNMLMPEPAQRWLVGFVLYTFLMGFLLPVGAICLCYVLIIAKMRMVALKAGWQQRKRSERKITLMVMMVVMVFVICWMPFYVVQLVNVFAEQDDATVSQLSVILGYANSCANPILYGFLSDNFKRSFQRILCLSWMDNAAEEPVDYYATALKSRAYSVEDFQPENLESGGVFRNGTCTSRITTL
CXCR4, sequence (P61073 whole entry): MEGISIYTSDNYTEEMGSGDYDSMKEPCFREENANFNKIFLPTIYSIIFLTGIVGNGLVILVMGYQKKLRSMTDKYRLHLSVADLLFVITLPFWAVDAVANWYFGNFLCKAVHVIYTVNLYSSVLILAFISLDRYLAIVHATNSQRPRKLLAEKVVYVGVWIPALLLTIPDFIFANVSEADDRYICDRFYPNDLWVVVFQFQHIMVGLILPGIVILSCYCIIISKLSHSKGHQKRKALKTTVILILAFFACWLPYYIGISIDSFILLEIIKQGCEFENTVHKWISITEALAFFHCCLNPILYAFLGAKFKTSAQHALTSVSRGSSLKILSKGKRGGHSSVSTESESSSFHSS

Molecule	mean_ES_IFN-γ [1, 11]	other results
WQSAAKTKTHDHWPGGRMRPPPWHDWRAR [SEQ ID NO: 352]	−0.2305	–
WQSAAKTKTHDHWPSGRYRPPPWHDWRAS [SEQ ID NO: 294]	0.6837	–
WSSAAKGKTHDHNPSGRHRPPPWHDWRVS [SEQ ID NO: 304]	0.6137	–
WSSAAKGKTHDHNWSGRHRPPPWHDWRFS [SEQ ID NO: 250]	0.9527	–
WSSAAKGKTHDHWGGGRYRPPPWHDWRAS [SEQ ID NO: 17]	1.172	mean_ES_IFN-γ [1, 12]: 1.172
WSSAAKGKTHDHYGGGRMRPPPWHDWRAR [SEQ ID NO: 338]	0.2829	–
WSSAAKGKTHDHYGSGRMRDFGWHDWRFS [SEQ ID NO: 274]	0.8191	–
WSSAAKGKTHDHYPSGRHRPPPWHDWRVS [SEQ ID NO: 253]	0.9469	–
WSSAAKTKWHDHNPGGRYRPPPWHDWRFR [SEQ ID NO: 332]	0.3258	–
WSSGAKTKWHDHNGSGRYRPPPWHDWRGS [SEQ ID NO: 286]	0.7241	–
WSSGAKTKWHDHNPGGRMRDPPWHDWRGS [SEQ ID NO: 335]	0.3156	–
WSSGAKTKWHDHYGSGRHRDPKWHDWRGS [SEQ ID NO: 19]	1.147	mean_ES_IFN-γ [1, 12]: 1.147
WSSTAKGKTHDHWPSGRYRPPPWHDWRAR [SEQ ID NO: 35]	1.009	mean_ES_IFN-γ [1, 12]: 1.009
WSSTAKTKWHDHNGGGRMRPPPWHDWRAR [SEQ ID NO: 305]	0.612	–
WTSAAKGKTHDHYPSGRYRPPPWHDWRVR [SEQ ID NO: 357]	−1.02	–
WTSAAKGKWHDHNGSGRHRDPPWHDWRAR [SEQ ID NO: 289]	0.7151	–
WTSAAKTKWHDHYGGGRMRPPPWHDWRAR [SEQ ID NO: 272]	0.8379	–
WTSGAKGKWHDHNGGGRMRDPGWHDWRFS [SEQ ID NO: 309]	0.5851	–
WTSGAKGKWHDHYGGGRYRDPGWHDWRFS [SEQ ID NO: 280]	0.7716	–
WVSAAKGKTHDHNGGGRWRDPGWHDWRFS [SEQ ID NO: 336]	0.3032	–
WVSAAKGKTHDHWGSGRHRDPPWHDWRAR [SEQ ID NO: 30]	1.052	mean_ES_IFN-γ [1, 12]: 1.052
WVSAAKGKWHDHYGSGRMRDPPWHDWWGS [SEQ ID NO: 24]	1.104	mean_ES_IFN-γ [1, 12]: 1.104
CXCL11 (ligand, UniProt O14625 22-94, looked up) FPMFKRGRCLCIGPGVKAVKVADIEKASIMYPSNNCDKIEVIITLKENKGQRCLNPKSKQARLIIKKVERKNF	–	binding result [2]: binds
MKVRPSVKPMCEKCKIIRRKGRVMVICENPKHKQRQG [SG-3-00802]	–	% Agonist Activity, PathHunter β-arrestin [3]: -4%; % Antagonist Activity, PathHunter β-arrestin [3]: -32%; % Agonist Activity, PathHunter β-arrestin [4]: -14%; % Antagonist Activity, PathHunter β-arrestin [4]: 99%; % Agonist Activity, PathHunter β-arrestin [5]: 2%; % Antagonist Activity, PathHunter β-arrestin [5]: -48%; % Agonist Activity, PathHunter β-arrestin [6]: 28%; % Antagonist Activity, PathHunter β-arrestin [6]: 11%; % Agonist Activity, PathHunter β-arrestin [7]: 0%; % Antagonist Activity, PathHunter β-arrestin [7]: 67%; % Agonist Activity, PathHunter β-arrestin [8]: 66%; % Antagonist Activity, PathHunter β-arrestin [8]: -9%; % Agonist Activity, PathHunter β-arrestin [9]: -137%; % Antagonist Activity, PathHunter β-arrestin [9]: 61%; % Agonist Activity, PathHunter β-arrestin [10]: 3%; % Antagonist Activity, PathHunter β-arrestin [10]: 77%
